According to patent US20240374563A1, “ANTICHOLINERGIC COMPOUNDS FOR USE IN TREATING NEUROMUSCULAR DISORDERS” (UNIVERSITY OF MONTRÉAL, priority 2022, published 2024):

Key:
[1] = test system: SOD1^G37R mice; experiment: NMJ innervation status and NMJ repair signs by immunohistochemistry; format: in vivo, mouse
Protocol: We characterized EDL innervation status, a vulnerable fast-twitch muscle in ALS [3, 25-27], by classifying NMJs into fully innervated, partially innervated and denervated NMJs (FIG. 2A).
Neuromuscular innervation: Immunostaining was performed on EDL and SOL muscle previously described. Briefly, NMJs were labeled to visualise the axon terminal, Schwann cells and the post-synaptic receptors. The presynaptic element was labeled using an anti-synaptic vesicular protein 2 (SV2, 1:2000, Developmental Studies Hybridoma Bank) and an anti-neurofilament M, (NF-M, 1:1000, Rockland Immunochemicals Inc). PSCs and Schwann cells were labeled with anti-S100β antibody (1:4, Z0311, Dako) and post-synaptic receptors with Alexa594-conjugated-α-BTX (1.33 μg/ml, Molecular Probes, Fischer Scientific, Canada).
Observations and image acquisition were obtained using a Zeiss LSM 880 confocal microscope, with a 63× oil immersion objective (N.A. 1.4) or an Olympus FV 1000, with either a 63× oil immersion objective or a 20× water immersion objective (respectively N.A. 0.95 and 0.90). No image manipulations were performed after acquisition, except for brightness and contrast adjustments for figure presentation.

[2] = test system: SOD1^G37R mice; experiment: Gait analysis (footprint test); format: in vivo, mouse; settings: P520; treatment from disease onset; N=8
Protocol: Finally, we aimed to better characterize the walking pattern of the mice following treatment. We measured the gait by performing a footprint analysis using inked paws.
Gait was assessed using the footprint test. Paws were inked with a nontoxic paint (fore-paws in blue and hind-paws in red), mice were placed on a restricted pathway on a white paper sheet (30 cm long, 6 cm wide) and free to walk along the walkway. Five footsteps from each run were measured for the following parameters (cm): (1) stride length ([…]) and (2) Step width (distance between left and right paws). The mean value of each set of outcomes was calculated for statistical analysis.

[3] = EDL, pre-onset treatment P400 until P480
[4] = EDL, treatment from disease onset (P450), 10 mg/kg orally, to P520
[5] = EDL, treatment from disease onset, 10 mg/kg orally

With `NC(=O)C(c1ccccc1)(c1ccccc1)[C@@H]1CCN(CCc2ccc3c(c2)CCO3)C1` [darifenacin] the “animals in which glial process extensions were seen” value [1, 3] was 5 out of 6, the “percentage of denervated NMJs” value [1, 3] was 15.7±5.9% and the “percentage of partially innervated NMJs” value [1, 3] was 33.9±5.1%. The “percentage of fully innervated NMJs” value ([1]; EDL, pre-onset treatment P400 until P480, N=6, n=145) was 50.4±9.2%, the “percentage of denervated NMJs” value ([1]; EDL, treatment from disease onset (P450), 10 mg/kg orally 5 days a week, to P520, N=7, n=293) was 5.6±1.8% and the “percentage of fully innervated NMJs” value [1, 4] was 70.1±4.2%. The “percentage of partially innervated NMJs” value [1, 4] was 24.2±4.0%, the “percentage of NMJs presenting nerve sprouting” value [1, 5] was 21.5±4.3% and the “percentage of NMJs with glial processes alone” value [1, 5] was 2.2±1.8%. For the same compound, the “percentage of NMJs with polyinnervation” value [1, 5] was 6.4±2.8, the “NMJ repair signs (nerve sprouting, polyinnervation, glial processes) vs placebo” value ([1]; SOL and EDL, pre-onset treatment P400 until P480) was “no evidence of significant difference” and the “percentage of partially innervated NMJs” value ([1]; SOL, pre-onset treatment P400 until P480) was 34.9±8.6%. The “percentage of fully innervated NMJs” value ([1]; SOL, pre-onset treatment P400 until P480, N=4, n=118) was 60.5±8.2%, the step width [2] was 2.62±0.16 cm and the stride length [2] was 4.13±0.36 cm.
